Where two headings read alike, the source gives them in different places.
What was measured:
[1] = for Biological distribution, Blood / Biological distribution, Brain / Biological distribution, Gallbladder / Biological distribution, Heart / Biological distribution, Kidney / Biological distribution, Large intestines / Biological distribution, Liver / Biological distribution, Lung / Biological distribution, Pancreas / Biological distribution, Small intestines / Biological distribution, Spleen / Biological distribution, Stomach / Biological distribution, Thyroid / Biological distribution, Urine: control normal mice, i.v.
Protocol: For biological distribution in normal mice, ^125I-ODV was prepared to a radioactivity concentration of 185 kBq/mL by adding saline. A total of 20 mice fasted for 6 hr were administered ^125I-ODV via the tail vein (18.5 kBq/100 µL/mouse). After 5, 15, 30, and 60 min, normal mice were euthanized under isoflurane anesthesia (n = 4), and the following tissues were collected: blood, brain, heart, lung, thyroid, gallbladder, liver, spleen, pancreas, stomach, small intestines, large intestines, and kidney. Tissues were weighed, and radioactivity was quantified using a γ-ray counter to calculate the %ID or percent injected dose per gram of tissue (%ID/g).

[2] = up to seven days at 4 °C
Protocol: The stability of ^125I-ODV was analyzed by TLC. The elution of ^125I-ODVwas spotted onto a silica gel TLC plate 60 F254 (Merck, Darmstadt, Germany). The TLC plate and the TLC spots were developed using methanol/acetate at a ratio of 100:1. After development and complete drying, the TLC plates were cut into 21 fractions, and the radiography associated with each fraction was quantified using a γ-ray counter (AccuFLEXγ 7000, Aloka, Tokyo, Japan). The fractional ratios of ^125I^− and ^125I-ODV were calculated by dividing the radioactive counts for each fraction by the total radioactivity count.

[3] = tested on: CYP; details: for fraction of 125I-ODV / peak of 125I-ODV metabolite: NADPH [+]
Protocol: Animal studies were approved by the Animal Care Committee at Kanazawa University (AP-173851) and were conducted in accordance with international standards for animal welfare and institutional guidelines. For preparation of the pooled mouse liver homogenates (MLH), three six-week-old ddY mice (Japan SLC, Tokyo, Japan) were euthanized under anesthesia with isoflurane, and the removed livers were weighed. After adding Krebs–Ringer phosphate buffer (pH 7.4), the pooled livers were homogenized with an ultrasonic homogenizer (SONIFIER250, Branson, MO, USA), and the protein content was measured according to the bicinchoninic acid method. The pooled MLH was stored at −80 °C.
For analysis of NADPH-mediated metabolism of ^125I-ODV, NADPH was used as an energy source of CYP-mediated metabolism. Adding an NADPH-generating system produced a state in which CYP was active. NADPH-mediated metabolism of ^125I-ODV was examined in a mixture consisting of an NADPH-generating system (0.5 mM β-NADP^+, 5 mM MgCl2, 5 mM G6P, and 1 U/mL G6PD), 100 mM sodium potassium phosphate buffer (pH 7.4), 50 μM EDTA disodium salt, and 1000 μg protein/20 μL pooled MLH in a final volume of 250 μL (NADPH [+]). […] The samples were incubated at 37 °C for 5, 15, 30, and 60 min with gentle shaking, ethanol was added to stop the reactions, and the samples were centrifuged at 18,000 g for 5 min. The supernatants in each sample were analyzed by HPLC. The mobile phase consisted of 70% 20 mM KH2PO4 buffer (pH 4.0) and 30% acetonitrile at a flow rate of 1.0 mL/min (n = 3).

[4] = normal mice, after 5 min of administration

In the case of CN(C)CC(c1ccc(O)c([125I])c1)C1(O)CCCCC1 (stereo not shown) [^125I-ODV, iodine-125-labeled O-desmethylvenlafaxine], the “Biological distribution, Blood” value ([1]; 5 min) is reported as 1.89 %ID/g, the “Biological distribution, Brain” value ([1]; 5 min) is reported as 0.80 %ID/g and the “Biological distribution, Gallbladder” value ([1]; 5 min) is reported as 4.31 %ID/g. The “Biological distribution, Heart” value ([1]; 5 min) was 5.64 %ID/g, the “Biological distribution, Kidney” value ([1]; 5 min) was 22.95 %ID/g and the “Biological distribution, Large intestines” value ([1]; 5 min) was 1.32 %ID/organ. The “Biological distribution, Liver” value ([1]; 5 min) was 6.91 %ID/g, the “Biological distribution, Lung” value ([1]; 5 min) was 27.04 %ID/g and the “Biological distribution, Pancreas” value ([1]; 5 min) was 7.87 %ID/g. The “Biological distribution, Small intestines” value ([1]; 5 min) was 6.85 %ID/organ, the “Biological distribution, Spleen” value ([1]; 5 min) was 9.22 %ID/g and the “Biological distribution, Stomach” value ([1]; 5 min) was 2.44 %ID/organ. For the same molecule, the “Biological distribution, Thyroid” value ([1]; 5 min) was 0.06 %ID/organ, the “Biological distribution, Urine” value ([1]; 5 min) was 0.63 %ID/organ and the “Biological distribution, Blood” value ([1]; 15 min) was 1.31 %ID/g. For the same molecule, the “Biological distribution, Brain” value ([1]; 15 min) was 0.75 %ID/g, the “Biological distribution, Gallbladder” value ([1]; 15 min) was 5.26 %ID/g and the “Biological distribution, Heart” value ([1]; 15 min) was 2.71 %ID/g. The “Biological distribution, Kidney” value ([1]; 15 min) was 16.37 %ID/g, the “Biological distribution, Large intestines” value ([1]; 15 min) was 1.18 %ID/organ and the “Biological distribution, Liver” value ([1]; 15 min) was 6.04 %ID/g. The “Biological distribution, Lung” value ([1]; 15 min) was 16.75 %ID/g, the “Biological distribution, Pancreas” value ([1]; 15 min) was 6.04 %ID/g and the “Biological distribution, Small intestines” value ([1]; 15 min) was 7.70 %ID/organ. For the same molecule, the “Biological distribution, Spleen” value ([1]; 15 min) was 4.79 %ID/g, the “Biological distribution, Stomach” value ([1]; 15 min) was 3.19 %ID/organ and the “Biological distribution, Thyroid” value ([1]; 15 min) was 0.03 %ID/organ. For the same molecule, the “Biological distribution, Urine” value ([1]; 15 min) was 3.37 %ID/organ, the “Biological distribution, Blood” value ([1]; 30 min) was 1.34 %ID/g and the “Biological distribution, Brain” value ([1]; 30 min) was 0.73 %ID/g. The “Biological distribution, Gallbladder” value ([1]; 30 min) was 24.23 %ID/g, the “Biological distribution, Heart” value ([1]; 30 min) was 2.04 %ID/g and the “Biological distribution, Kidney” value ([1]; 30 min) was 14.27 %ID/g. For the same molecule, the “Biological distribution, Large intestines” value ([1]; 30 min) was 0.68 %ID/organ, the “Biological distribution, Liver” value ([1]; 30 min) was 5.45 %ID/g and the “Biological distribution, Lung” value ([1]; 30 min) was 13.30 %ID/g. The “Biological distribution, Pancreas” value ([1]; 30 min) was 5.02 %ID/g, the “Biological distribution, Small intestines” value ([1]; 30 min) was 8.47 %ID/organ and the “Biological distribution, Spleen” value ([1]; 30 min) was 3.45 %ID/g. For the same molecule, the “Biological distribution, Stomach” value ([1]; 30 min) was 2.75 %ID/organ, the “Biological distribution, Thyroid” value ([1]; 30 min) was 0.04 %ID/organ and the “Biological distribution, Urine” value ([1]; 30 min) was 3.69 %ID/organ. For the same molecule, the “Biological distribution, Blood” value ([1]; 60 min) was 0.74 %ID/g, the “Biological distribution, Brain” value ([1]; 60 min) was 0.60 %ID/g and the “Biological distribution, Gallbladder” value ([1]; 60 min) was 33.05 %ID/g. The “Biological distribution, Heart” value ([1]; 60 min) was 1.00 %ID/g, the “Biological distribution, Kidney” value ([1]; 60 min) was 9.42 %ID/g and the “Biological distribution, Large intestines” value ([1]; 60 min) was 0.47 %ID/organ. For the same molecule, the “Biological distribution, Liver” value ([1]; 60 min) was 2.89 %ID/g, the “Biological distribution, Lung” value ([1]; 60 min) was 5.01 %ID/g and the “Biological distribution, Pancreas” value ([1]; 60 min) was 2.92 %ID/g. For the same molecule, the “Biological distribution, Small intestines” value ([1]; 60 min) was 11.03 %ID/organ, the “Biological distribution, Spleen” value ([1]; 60 min) was 1.75 %ID/g and the “Biological distribution, Stomach” value ([1]; 60 min) was 1.88 %ID/organ. The “Biological distribution, Thyroid” value ([1]; 60 min) was 0.02 %ID/organ, the “Biological distribution, Urine” value ([1]; 60 min) was 7.31 %ID/organ and the “accumulation in the kidneys” value [1, 4] was “more than 20%”. The “accumulation in the lungs” value [1, 4] was “more than 20%”, the radiochemical purity [2] was “more than 98%” and the “fraction of 125I-ODV” value ([3]; end value of the decrease) was roughly 54%. The “peak of 125I-ODV metabolite” value ([3]; end value of the increase) was roughly 46%, the “fraction of 125I-ODV” value ([3]; start value of the decrease) was “about 85%” and the “peak of 125I-ODV metabolite” value ([3]; start value of the increase) was “about 0%”. For the same molecule, the percentage of metabolite ([3]; NADPH [−], 37 °C, 15 min) was 1.52%.
